Results from the OligoGym collection.
“And” between values parts separate entries of the source, which are not always exact repeats. Identical values can stand only once. After the bases stand the sugars from the 5' end (letter, count) and the backbone: PS all phosphorothioate, else s phosphorothioate and o phosphodiester by linkage. Methylation of C is not given here. e = 2'-O-(2-methoxyethyl) (MOE); k = constrained ethyl (cEt); d = 2'-deoxy (DNA)

Biological target: APOL1
Settings: ASO

| Sequence | target mRNA inhibition (A431, 2 µM) [%] | target mRNA inhibition (A431, 0.0625 µM) | target mRNA inhibition (A431, 0.25 µM) | target mRNA inhibition (A431, 1 µM) | further results |
| --- | --- | --- | --- | --- | --- |
| GGCAGTTTTGTAAGTG (sugars kkddddkekekddddd, PS) | 65 |  |  |  |  |
| GGCATTCAGAATTTCC (sugars k2 d4 e3 k2 d5, PS) | 97 |  |  |  |  |
| GGCATTCAGAATTTCC (sugars kkddddekekeddddd, PS) | 93 |  |  |  |  |
| GGCATTCAGAATTTCC (sugars kkddddkekekddddd, PS) | 46 |  |  |  |  |
| GGCATTCAGAATTTCC (sugars kkkddddkekekdddd, PS) | 20 |  |  |  |  |
| GGGTTATGAAATTATT (sugars kkddddkekekddddd, PS) | 84 |  |  |  |  |
| GGTAAGAGCGATGGGA (sugars k3 d10 k3, PS) |  | 79% | 93% | 97% |  |
| GGTTATGAAATTATTG (sugars k2 d4 e3 k2 d5, PS) | 61 |  |  |  |  |
| GGTTATGAAATTATTG (sugars kkkddddkekeddddd, PS) | 88 |  |  |  |  |
| GGTTCAAAAGCAGCAT (sugars k2 d4 e3 k2 d5, PS) | 95 | 60% | 86% | 94% | target mRNA inhibition (A431, 0.0156 µM): 21% |
| GGTTCAAAAGCAGCAT (sugars k4 d9 k3, PS) |  | 78% | 91% | 95% |  |
| GTAAGTATTGCCAGCT (sugars k2 d4 e3 k2 d5, PS) | 89 |  |  |  |  |
| GTAAGTGCAACCAATC (sugars k4 d9 k3, PS) |  | 75% | 93% | 99% |  |
| GTATTGCCAGCTAAGG (sugars kddddkekekeddddd, PS) | 70 |  |  |  |  |
| GTATTTCTTGATGTGG (sugars kdddddkekekddddd, PS) | 92 |  |  |  |  |
| GTATTTCTTGATGTGG (sugars kddddkekekeddddd, PS) | 87 |  |  |  |  |
| GTGAGTATTGTTTTTG (sugars k2 d4 e3 k2 d5, PS) | 92 |  |  |  |  |
| GTGAGTATTGTTTTTG (sugars kkkddddkekekdddd, PS) | 85 |  |  |  |  |
| GTGTATTTCTTGATGT (sugars kkddddkekekddddd, PS) | 95 |  |  |  |  |
| GTGTATTTCTTGATGT (sugars kkkddddkekekdddd, PS) | 84 |  |  |  |  |
| GTGTGAGTTGGTAAGT (sugars k4 d9 k3, PS) |  | 54% | 85% | 95% |  |
| GTGTTATATTTGATCC (sugars kkkddddkekeddddd, PS) | 96 | 66% | 89% | 95% | target mRNA inhibition (A431, 0.0156 µM): 24%; target mRNA inhibition (A431, 0.04 µM): 50% |
| GTTATATTTGATCCTC (sugars k2 d4 e3 k2 d5, PS) | 93 | 31% | 67% | 89% | target mRNA inhibition (A431, 0.0156 µM): 2% |
| GTTATATTTGATCCTC (sugars k3 d4 k3 e1 d5, PS) | 98 |  |  |  |  |
| GTTATATTTGATCCTC (sugars kddddkekekeddddd, PS) | 60 |  |  |  |  |
| GTTATATTTGATCCTC (sugars kkdddddkekeddddd, PS) | 97 |  |  |  |  |
| GTTATATTTGATCCTC (sugars kkddddekekeddddd, PS) | 96 | 37% | 69% | 64% | target mRNA inhibition (A431, 0.0156 µM): 8% |

| Sequence | target mRNA inhibition (A431, 2 µM) [%] | target mRNA inhibition (A431, 0.0625 µM) | target mRNA inhibition (A431, 0.25 µM) | target mRNA inhibition (A431, 1 µM) | further results |
| --- | --- | --- | --- | --- | --- |
| GTTATATTTGATCCTC (sugars kkddddkekekkdddd, PS) | 43 |  |  |  |  |
| GTTATATTTGATCCTC (sugars kkkddddkekekdddd, PS) | 66 |  |  |  |  |
| GTTATGAAATTATTGG (sugars k4 d9 k3, PS) |  | 58% and 42% | 87% and 73% | 95% and 87% and 97% |  |
| GTTATGAAATTATTGG (sugars kddddkekekeddddd, PS) | 77 |  |  |  |  |
| GTTATGAAATTATTGG (sugars kekddddeekkddddd, PS) | 90 | 43% | 64% | 84% | target mRNA inhibition (A431, 0.0156 µM): 14% |
| GTTATGAAATTATTGG (sugars kkddddkekekkdddd, PS) | 86 |  |  |  |  |
| GTTCAAAAGCAGCATT (sugars kdddddkekekddddd, PS) | 79 |  |  |  |  |
| GTTCAAAAGCAGCATT (sugars kkkddddkdkdkdddd, PS) | 23 |  |  |  |  |
| GTTCAAAAGCAGCATT (sugars kkkddddkekeddddd, PS) | 85 |  |  |  |  |
| GTTCTAACTCTTGGGC (sugars k2 d4 e3 k2 d5, PS) | 91 | 35% | 65% | 85% | target mRNA inhibition (A431, 0.0156 µM): 20% |
| GTTCTAACTCTTGGGC (sugars k4 d9 k3, PS) |  | 74% | 85% | 92% |  |
| GTTCTAACTCTTGGGC (sugars kkddddekekeddddd, PS) | 78 |  |  |  |  |
| GTTCTAACTCTTGGGC (sugars kkddddkdkdkddddd, PS) | 90 | 28% | 59% | 75% | target mRNA inhibition (A431, 0.0156 µM): 3% |
| GTTCTAACTCTTGGGC (sugars kkddddkekekkdddd, PS) | 52 |  |  |  |  |
| GTTGTCCAGAGCTTTA (sugars k4 d9 k3, PS) |  | 56% | 72% | 79% |  |
| GTTTTGTAAGTGCAAC (sugars kdddddkekekddddd, PS) | 92 |  |  |  |  |
| GTTTTGTAAGTGCAAC (sugars kddddkekekeddddd, PS) | 73 |  |  |  |  |
| GTTTTGTAAGTGCAAC (sugars kkkddddkekekdddd, PS) | 59 |  |  |  |  |
| GTTTTTACAATAGTGC (sugars k4 d9 k3, PS) |  | 74% | 91% | 96% |  |
| TAAGTATTGCCAGCTA (sugars k3 d4 k3 e1 d5, PS) | 65 |  |  |  |  |
| TAATTCTATTAGAGGG (sugars k4 d9 k3, PS) |  | 17% | 45% | 69% |  |
| TAATTCTATTAGAGGG (sugars kkddddkekekddddd, PS) | 34 |  |  |  |  |
| TACCGGGTAAGAGCGA (sugars k4 d9 k3, PS) |  | 32% | 64% | 78% |  |
| TATATTTGATCCTCAA (sugars kkddddkekekkdddd, PS) | 77 |  |  |  |  |
| TATCAGATGGGTACTT (sugars k2 d4 e3 k2 d5, PS) | 70 |  |  |  |  |
| TATTGGTTCAAAAGCA (sugars k4 d9 k3, PS) |  | 29% | 67% | 86% |  |
| TATTTCTTGATGTGGT (sugars k2 d4 e3 k2 d5, PS) | 99 | 78% | 94% | 98% | target mRNA inhibition (A431, 0.0156 µM): 37% |

| Sequence | target mRNA inhibition (A431, 2 µM) [%] | target mRNA inhibition (A431, 0.0625 µM) | target mRNA inhibition (A431, 0.25 µM) | target mRNA inhibition (A431, 1 µM) | further results |
| --- | --- | --- | --- | --- | --- |
| TATTTCTTGATGTGGT (sugars kkdddddkekeddddd, PS) | 99 | 59% | 87% | 96% | target mRNA inhibition (A431, 0.0156 µM): 10% |
| TATTTCTTGATGTGGT (sugars kkddddkekekkdddd, PS) | 71 |  |  |  |  |
| TCAATTTGTCAAGGCT (sugars k4 d9 k3, PS) |  | 46% and 59% | 78% and 83% | 90% and 91% |  |
| TCAGATGGGTACTTCT (sugars k3 d4 k3 e1 d5, PS) | 82 |  |  |  |  |
| TCAGATGGGTACTTCT (sugars kkdddddkekeddddd, PS) | 89 |  |  |  |  |
| TCAGGTGACTACATTT (sugars k4 d9 k3, PS) |  | 47% | 67% | 84% |  |
| TCATTTGCTAGGTGCC (sugars k4 d9 k3, PS) |  | 43% | 72% | 85% |  |
| TCTATTAGAGGGCTAG (sugars k2 d4 e4 k2 d4, PS) | 44 |  |  |  |  |
| TCTATTAGAGGGCTAG (sugars kkkddddkekekdddd, PS) | 23 |  |  |  |  |
| TCTCATGGTACAGGAG (sugars kddddkekekeddddd, PS) | 55 |  |  |  |  |
| TGAAACATTCCTGGAC (sugars k4 d9 k3, PS) |  | 28% and 8% | 55% and 32% | 80% and 65% |  |
| TGAAGATTGGCTCTGG (sugars k2 d4 e3 k2 d5, PS) | 82 |  |  |  |  |
| TGAAGATTGGCTCTGG (sugars kkkddddkekeddddd, PS) | 54 |  |  |  |  |
| TGAGTATTGTTTTTGT (sugars k2 d4 e3 k2 d5, PS) | 87 |  |  |  |  |
| TGGATGGAAGGAACCT (sugars k4 d9 k3, PS) |  | 3% | 44% | 36% |  |
| TGGGAATTATGGAATT (sugars kkkddddkekekdddd, PS) | 56 |  |  |  |  |
| TGTAAGTGCAACCAAT (sugars k4 d9 k3, PS) |  | 19% | 46% | 78% |  |
| TGTATTTCTTGATGTG (sugars k3 d4 k3 e1 d5, PS) | 87 |  |  |  |  |
| TGTGATGTGGGACTTG (sugars k4 d9 k3, PS) |  | 32% | 70% | 84% |  |
| TGTTATATTTGATCCT (sugars k3 d4 k3 e1 d5, PS) | 89 |  |  |  |  |
| TGTTATATTTGATCCT (sugars kdddddkekekddddd, PS) | 79 |  |  |  |  |
| TGTTATATTTGATCCT (sugars kkddddkekekddddd, PS) | 81 |  |  |  |  |
| TGTTATATTTGATCCT (sugars kkkddddkekekdddd, PS) | 59 |  |  |  |  |
| TGTTATCCTCAAGCTC (sugars k4 d9 k3, PS) |  | 37% and 17% |  |  |  |
| TGTTCTAACTCTTGGG (sugars k2 d4 e3 k2 d5, PS) | 97 | 61% | 84% | 93% | target mRNA inhibition (A431, 0.0156 µM): 24% |
